Experimental data: paper PMC5921725 (Japanese Journal of Cancer Research : Gann, 1998)
Read-outs that look alike come from different tables or passages of the source.

Key:
human P-gp [1] = target: T1, human P-gp (Homo sapiens, UniProt P08183); settings: 2 μM inhibitor, LLC-GA5-COL150, after last sampling (3 h)
human P-gp [2] = target: T1, human P-gp; assay: Transcellular transport of PSC833 in LLC-PK1 and LLC-GA5-COL150 cells
P-gp = settings: cited from earlier work
human P-gp [3] = target: T1, human P-gp
[4] = clinical trials, cited from earlier work
human P-gp [5] = target: T1, human P-gp; settings: for effect on [14C]doxorubicin transport: LLC-GA5-COL150

T1 sequence (P08183 whole entry): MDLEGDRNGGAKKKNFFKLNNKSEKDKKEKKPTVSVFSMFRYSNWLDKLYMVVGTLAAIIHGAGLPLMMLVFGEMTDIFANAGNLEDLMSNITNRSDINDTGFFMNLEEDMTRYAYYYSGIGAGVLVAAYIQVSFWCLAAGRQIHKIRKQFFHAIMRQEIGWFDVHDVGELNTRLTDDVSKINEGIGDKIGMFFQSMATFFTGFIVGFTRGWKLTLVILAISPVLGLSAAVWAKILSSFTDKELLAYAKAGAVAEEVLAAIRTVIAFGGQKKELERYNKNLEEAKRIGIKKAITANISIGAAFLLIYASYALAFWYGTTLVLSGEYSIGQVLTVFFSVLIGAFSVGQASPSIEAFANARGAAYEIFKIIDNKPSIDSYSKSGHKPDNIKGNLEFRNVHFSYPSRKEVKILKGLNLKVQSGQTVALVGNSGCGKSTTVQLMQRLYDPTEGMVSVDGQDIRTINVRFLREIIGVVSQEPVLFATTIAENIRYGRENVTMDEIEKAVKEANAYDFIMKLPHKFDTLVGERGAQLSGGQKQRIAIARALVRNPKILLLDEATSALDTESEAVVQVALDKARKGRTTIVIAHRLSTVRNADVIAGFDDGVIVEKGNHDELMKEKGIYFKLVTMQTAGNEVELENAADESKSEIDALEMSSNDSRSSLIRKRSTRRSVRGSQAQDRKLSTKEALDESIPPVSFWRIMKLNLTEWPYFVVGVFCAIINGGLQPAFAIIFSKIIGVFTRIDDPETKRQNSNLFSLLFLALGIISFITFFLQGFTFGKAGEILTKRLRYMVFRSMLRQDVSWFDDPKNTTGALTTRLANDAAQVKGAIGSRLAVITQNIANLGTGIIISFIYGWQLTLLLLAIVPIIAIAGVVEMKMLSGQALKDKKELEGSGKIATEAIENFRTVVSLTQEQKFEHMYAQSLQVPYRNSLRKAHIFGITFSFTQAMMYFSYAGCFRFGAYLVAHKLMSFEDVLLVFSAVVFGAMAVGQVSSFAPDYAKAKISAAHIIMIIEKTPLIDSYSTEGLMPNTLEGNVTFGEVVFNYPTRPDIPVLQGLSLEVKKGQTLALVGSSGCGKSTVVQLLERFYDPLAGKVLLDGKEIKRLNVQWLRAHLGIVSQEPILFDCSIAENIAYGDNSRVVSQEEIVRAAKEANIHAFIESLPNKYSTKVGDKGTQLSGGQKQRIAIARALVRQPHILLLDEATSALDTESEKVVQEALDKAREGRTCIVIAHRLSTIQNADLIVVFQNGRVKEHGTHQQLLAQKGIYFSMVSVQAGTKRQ

C/C=C/C[C@@H](C)C(=O)[C@H]1C(=O)N[C@@H](C(C)C)C(=O)N(C)CC(=O)N(C)[C@@H](CC(C)C)C(=O)N[C@@H](C(C)C)C(=O)N(C)[C@@H](CC(C)C)C(=O)N[C@@H](C)C(=O)N[C@H](C)C(=O)N(C)[C@@H](CC(C)C)C(=O)N(C)[C@@H](CC(C)C)C(=O)N(C)[C@@H](C(C)C)C(=O)N1C [PSC833, [3′‐keto‐Bmt1]‐Val2]‐cyclosporin]
intracellular accumulation of [3H]vinblastine (human P-gp [1]): approached the control level
transported amount in LLC-GA5-COL150 cells compared with LLC-PK1 cells (human P-gp [2]; 10 μM PSC833, 3 and 6 h, 37C, HPLC-UV): approximately the same
transport by P-gp (human P-gp [2]; LLC-GA5-COL150 vs LLC-PK1 monolayers, 10 μM, both directions): not transported
more effective than Cs-A in displacing the photoactivatable cyclosporin analogue (P-gp): approximately 2.5 fold
effect on [3H]vinblastine transport (human P-gp [3]; 2 μM inhibitor, LLC-GA5-COL150): almost completely inhibited
IC50 of PSC833 for vinblastine transport as % of that of Cs-A (human P-gp [3]; Table I): 20%
IC50 of PSC833 less than that of Cs-A for [3H]vinblastine transport (human P-gp [3]; ratio of IC50 values, Table I): about 5 fold
concentrations at which the AUC of coadministered anticancer drugs increased [4]: 1000 to 2000 ng/mL
increase in the AUC of doxorubicin ([4]; combination therapy with PSC833 and doxorubicin): 20-199%
effect on [14C]doxorubicin transport (human P-gp [5]; 0.1 μM inhibitor): little inhibitory effect
IC50 of PSC833 for [14C]doxorubicin transport as % of that of Cs-A (human P-gp [5]; Table I): 10%
effect on [14C]doxorubicin transport (human P-gp [5]; inhibitor concentrations greater than 0.5 μM): strong inhibitory effect
IC50 of PSC833 less than that of Cs-A for [14C]doxorubicin transport (human P-gp [5]; ratio of IC50 values, Table I): ~10 fold
